Each structure is given as a SMILES string.

Broadly, the mortality is the percentage killed.

Holding throughout (assay type): in vivo
Data set [1] concerns Beet Armyworm (Spodoptera exigua, LAPHEG). Briefly: Bioassay on Beet Armyworm (BAW), 128-well diet tray assay. The note with it: 168 h, second instar BAW larvae, 50 μg/cm^2 on artificial diet, 25° C., five to seven days, average of eight wells, read-out: BAW % Control (or Mortality) rating. As for the experimental part:
(§1) Certain molecules disclosed in this document were tested against BAW and CL using procedures described in the following examples. In the reporting of the results, the “BAW & CL Rating Table” was used (See Table Section).
Bioassays on BAW were conducted using a 128-well diet tray assay. One to five second instar BAW larvae were placed in each well (3 mL) of the diet tray that had been previously filled with 1 mL of artificial diet to which 50 μg/cm^2 of the test molecule (dissolved in 50 μL of 90:10 acetone-water mixture) had been applied (to each of eight wells) and then allowed to dry. Trays were covered with a clear self-adhesive cover, vented to allow gas exchange, and held at 25° C., 14:10 light-dark for five to seven days. Percent mortality was recorded for the larvae in each well; activity in the eight wells was then averaged. The results are indicated in the table entitled “Table ABC: Biological Results” (See Table Section).

Data set [2] deals with Cabbage Looper (Trichoplusia ni, TRIPNI). Briefly: Bioassay on Cabbage Looper (CL), 128-well diet tray assay. To be noted: 168 h, second instar CL larvae, 50 μg/cm^2 on artificial diet, 25° C., five to seven days, average of eight wells, read-out: CL % Control (or Mortality) rating. How it is done:
as §1
Bioassays on CL were conducted using a 128-well diet tray assay. One to five second instar CL larvae were placed in each well (3 mL) of the diet tray that had been previously filled with 1 mL of artificial diet to which 50 μg/cm^2 of the test molecule (dissolved in 50 μL of 90:10 acetone-water mixture) had been applied (to each of eight wells) and then allowed to dry. Trays were covered with a clear self-adhesive cover, vented to allow gas exchange, and held at 25° C., 14:10 light-dark for five to seven days. Percent mortality was recorded for the larvae in each well; activity in the eight wells was then averaged. The results are indicated in the table entitled “Table ABC: Biological Results” (See Table Section).

Data set [3] deals with Yellow Fever Mosquito (Aedes aegypti, AEDSAE). The note with it: about 1 day-old larvae, from 4000 ppm DMSO master plate, room temperature, scored after 3 days. How it is done:
Certain molecules disclosed in this document were tested against YFM using procedures described in the following paragraph. In the reporting of the results, the “YFM Rating Table” was used (See Table Section).
Master plates containing 400 μg of a molecule dissolved in 100 μL of dimethyl sulfoxide (DMSO) (equivalent to a 4000 ppm solution) are used. A master plate of assembled molecules contains 15 μL per well. To this plate, 135 μL of a 90:10 water/acetone mixture is added to each well. A robot (Biomek® NXP Laboratory Automation Workstation) is programmed to dispense 15 μL aspirations from the master plate into an empty 96-well shallow plate (“daughter” plate). There are 6 reps (“daughter” plates) created per master. The created “daughter” plates are then immediately infested with YFM larvae.
The day before plates are to be treated, mosquito eggs are placed in Millipore water containing liver powder to begin hatching (4 g into 400 mL). After the “daughter” plates are created using the robot, they are infested with 220 μL of the liver powder/larval mosquito mixture (about 1 day-old larvae). After plates are infested with mosquito larvae, a non-evaporative lid is used to cover the plate to reduce drying. Plates are held at room temperature for 3 days prior to grading. After 3 days, each well is observed and scored based on mortality. The results are indicated in the table entitled “Table ABC: Biological Results” (See Table Section).

For the compound `CCCc1ccc(C)cc1N1C(=O)CS/C1=N\C(=O)Nc1ccc(COc2ncn(-c3ccc(OC(F)(F)F)cc3)n2)cc1` [F5, (Z)-1-(3-(5-Methyl-2-propylphenyl)-4-oxothiazolidin-2-ylidene)-3-(4-(((1-(4-(trifluoromethoxy)phenyl)-1H-1,2,4-triazol-3-yl)oxy)methyl)phenyl)urea], the mortality at 50 µg/cm2 in data set [1] and in data set [2] was 50 to 100% each time. Besides, the “YFM % Control (or Mortality) rating” value in data set [3] is “A (80-100)”.
Turning to `COCc1ccc(C)cc1N1C(=O)CS/C1=N\C(=O)Nc1ccc(COc2ncn(-c3ccc(OC(F)(F)F)cc3)n2)cc1` [F8, (Z)-1-(3-(2-(Methoxymethyl)-5-methylphenyl)-4-oxothiazolidin-2-ylidene)-3-(4-(((1-(4-(trifluoromethoxy)phenyl)-1H-1,2,4-triazol-3-yl)oxy)methyl)phenyl)urea], the mortality at 50 µg/cm2 in data set [1] and in data set [2] was 50 to 100% each time. The “YFM % Control (or Mortality) rating” value in data set [3] is recorded as “A (80-100)”.
Turning to `COCc1ccc(C)cc1N1C(=O)CS/C1=N\C(=O)Nc1ccc(COc2ncn(-c3ccc(OC(F)(F)F)cc3)n2)c(F)c1` [F9, (Z)-1-(3-Fluoro-4-(((1-(4-(trifluoromethoxy)phenyl)-1H-1,2,4-triazol-3-yl)oxy)methyl)phenyl)-3-(3-(2-(methoxymethyl)-5-methylphenyl)-4-oxothiazolidin-2-ylidene)urea], the mortality at 50 µg/cm2 in data set [1] and in data set [2] was 50 to 100% throughout. Besides, in data set [3], the “YFM % Control (or Mortality) rating” value is given as “A (80-100)”.
With `CCCc1ccc(C)cc1N1C(=O)CS/C1=N\C(=O)Nc1ccc(OCc2ncn(-c3ccc(OC(F)(F)F)cc3)n2)cc1` [F17, (Z)-1-(3-(5-Methyl-2-propylphenyl)-4-oxothiazolidin-2-ylidene)-3-(4-((1-(4-(trifluoromethoxy)phenyl)-1H-1,2,4-triazol-3-yl)methoxy)phenyl)urea], the mortality at 50 µg/cm2 in data set [1] and in data set [2] was 50 to 100% each time. The “YFM % Control (or Mortality) rating” value in data set [3] was “A (80-100)”.
In the case of `Cc1ccc(C(C)C)c(N2C(=O)CS/C2=N\C(=O)Nc2cc(F)c(OCc3ncn(-c4ccc(OC(F)(F)F)cc4)n3)c(F)c2)c1` [F41, (Z)-1-(3,5-Difluoro-4-((1-(4-(trifluoromethoxy)phenyl)-1H-1,2,4-triazol-3-yl)methoxy)phenyl)-3-(3-(2-isopropyl-5-methylphenyl)-4-oxothiazolidin-2-ylidene)urea], the mortality at 50 µg/cm2 in data set [1] and in data set [2] was 50 to 100% in each case. For the same compound, the “YFM % Control (or Mortality) rating” value in data set [3] is given as “A (80-100)”.

For the origin of these results see patent US9617253B2, “Molecules having pesticidal utility, and intermediates, compositions, and processes, related thereto” (Dow AgroSciences LLC, priority 2015, dated 2017).
